Laboratory results as given in ChEMBL document CHEMBL1128373, “A-ring ortho-disubstituted aporphine derivatives as potential agonists or antagonists at serotonergic 5-HT1A receptors” (J Med Chem, 1995).
Activity calls are given as the source filed them. The calls are words filed in the database; no cut-off is given here.

target: T1, 5-hydroxytryptamine receptor 1A (Homo sapiens) (UniProt P08908); assay: Ability to antagonize electrical induced contractile responses in Guinea pig ileum for 5-HT1A receptor. Inactive at dose level of 1.0 uM; format: tissue-based; settings: Cavia porcellus, target entry is the homologue from another species
T1 sequence (whole entry): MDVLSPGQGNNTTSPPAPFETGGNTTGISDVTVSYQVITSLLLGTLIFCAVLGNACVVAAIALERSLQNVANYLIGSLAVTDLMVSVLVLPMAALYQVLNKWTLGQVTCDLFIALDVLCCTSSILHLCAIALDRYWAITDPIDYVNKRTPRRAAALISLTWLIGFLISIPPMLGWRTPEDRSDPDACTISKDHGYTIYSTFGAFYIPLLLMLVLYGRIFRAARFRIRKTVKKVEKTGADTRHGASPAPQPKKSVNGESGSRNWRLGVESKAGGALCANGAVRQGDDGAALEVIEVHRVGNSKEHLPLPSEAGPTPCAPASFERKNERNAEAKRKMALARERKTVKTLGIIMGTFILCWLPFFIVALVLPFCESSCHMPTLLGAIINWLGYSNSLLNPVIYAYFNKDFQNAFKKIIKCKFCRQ

| Compound | ED50 |
| --- | --- |
| Cc1cc2c(cc1O)CC1c3c(cccc3-2)CCN1C (single isomer, unassigned; (+)) | inactive |
| Cc1cc2c(cc1O)-c1cccc3c1C(C2)N(C)CC3 (single isomer, unassigned; (-)) | inactive |
| Cc1cc2c(cc1O)CC1c3c(cccc3-2)CCN1C (single isomer, unassigned; (-)) | inactive |

target: T1, 5-hydroxytryptamine receptor 1A (Homo sapiens); assay: Ability to antagonize Acetylcholine induced contractile responses in Guinea pig ileum for 5-HT1A receptor. Inactive at dose level of 1.0 uM; format: tissue-based; settings: Cavia porcellus, target entry is the homologue from another species

| Compound | ED50 |
| --- | --- |
| Cc1cc2c(cc1O)CC1c3c(cccc3-2)CCN1C (single isomer, unassigned; (+)) | inactive |
| Cc1cc2c(cc1O)-c1cccc3c1C(C2)N(C)CC3 (single isomer, unassigned; (+)) | inactive |
| Cc1cc2c(cc1O)-c1cccc3c1C(C2)N(C)CC3 (single isomer, unassigned; (-)) | inactive |
| Cc1cc2c(cc1O)CC1c3c(cccc3-2)CCN1C (single isomer, unassigned; (-)) | inactive |

target: T1, 5-hydroxytryptamine receptor 1A (Homo sapiens); assay: Ability to antagonize Acetylcholine induced contractile responses in Guinea pig ileum for 5-HT1A receptor.; format: tissue-based; settings: Cavia porcellus, target entry is the homologue from another species

| Compound | ED50 |
| --- | --- |
| COc1cc2c(cc1C)-c1cccc3c1C(C2)N(C)CC3 (single isomer, unassigned; (-)) | 2.7 µM |
| COc1cc2c(cc1C)CC1c3c(cccc3-2)CCN1C (stereo in doubt; (-)-9) | 11.4 µM |
| COc1cc2c(cc1C)-c1cccc3c1C(C2)N(C)CC3 (single isomer, unassigned; (+)) | 24.9 µM |
| COc1cc2c(cc1C)CC1c3c(cccc3-2)CCN1C (stereo in doubt; (+)-9) | 36.6 µM |

target: T1, 5-hydroxytryptamine receptor 1A (Homo sapiens); assay: Ability to antagonize electrical induced contractile responses in Guinea pig ileum for 5-HT1A receptor; Inactive at dose level of 1.0 uM; format: tissue-based; settings: Cavia porcellus, target entry is the homologue from another species

| Compound | ED50 |
| --- | --- |
| Cc1cc2c(cc1O)-c1cccc3c1C(C2)N(C)CC3 (single isomer, unassigned; (+)) | inactive |

target: T1, 5-hydroxytryptamine receptor 1A (Homo sapiens); assay: Ability to antagonize electrical induced contractile responses in Guinea pig ileum for 5-HT1A receptor.; format: tissue-based; settings: Cavia porcellus, target entry is the homologue from another species

| Compound | ED50 |
| --- | --- |
| COc1cc2c(cc1C)-c1cccc3c1C(C2)N(C)CC3 (single isomer, unassigned; (-)) | 5 µM |
| COc1cc2c(cc1C)CC1c3c(cccc3-2)CCN1C (stereo in doubt; (-)-9) | 2.6 µM |
| COc1cc2c(cc1C)-c1cccc3c1C(C2)N(C)CC3 (single isomer, unassigned; (+)) | 5.4 µM |
| COc1cc2c(cc1C)CC1c3c(cccc3-2)CCN1C (stereo in doubt; (+)-9) | 5.9 µM |
| Cc1ccc2c(c1O)-c1cccc3c1[C@@H](C2)N(C)CC3 | 0.05 µM |
